Measured values as given in the METLIN SMRT retention time set (Domingo-Almenara et al. 2019).

assay: gradient 5% acetonitrile 3 min, to 50% in 2 min, to 85% in 15 min, held 3 min, 100 µL/min; conditions: column: Zorbax Extend-C18 2.1 x 50 mm; eluents: water / acetonitrile, 0.1% formic acid
Procedure, shortened: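 Mixtures of ~100 pure standards were chromatographed on a Zorbax Extend-C18 column (2.1 × 50 mm, 1.8 μm) at 100 μL/min using water and acetonitrile, each with 0.1% formic acid. Detection used a quadrupole time-of-flight mass spectrometer in positive and negative ionization mode, and data collection spanned 3 months. Retention time was obtained from adduct peaks picked computationally and each checked manually.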

SMILES | RP-LC retention time [s]
Cc1ccccc1CNC(=O)C1c2ccccc2CC(=O)N1C(C)C (centres undefined) | 827
O=C(Cc1ccsc1)N1CCCC1c1nc(-c2ccc(F)cc2F)no1 (centres undefined) | 922
COc1cc(OC)c(NC(=O)N2CC(c3nc(C(C)C)nn3C)C2)cc1Cl | 695
CC(C)n1cnc2cc(CNC(=O)c3cccc(C#N)c3)ccc21 | 596
CCSc1nnc(NC(=O)Cn2cnc(C(C)C)cc2=O)s1 | 664
CCCNC(=O)c1cnn2c3c(cnc12)CCCCCC3 | 976
CCc1nc(N2CCNCC2)c(C#N)c2c1COC(C)(C)C2 | 627
COc1ccc(C2(C(=O)N3C[C@H]4C[C@H](C3)[C@H]3CCCC(=O)N3C4)CC2)cc1 | 679
COc1cc(C(=O)N2CCC(CC(=O)N3CCOCC3)CC2)cc(OC)c1OC | 618
COc1ccc(NC(=O)CSc2nnc(CNC(=O)c3cccs3)o2)c(OC)c1 | 614
O=c1ccc(-c2ccccc2)nn1Cc1nc(-c2cccc(Cl)c2)no1 | 1100
CCc1ccc(NC(=O)c2cc3c(=O)n(CC)ccc3n2C)cc1 | 753
Cc1nn(-c2ccc3nnc(C)n3n2)c(C)c1CCC(=O)NCCc1c[nH]c2ccccc12 | 726
CC(C)N1CCC(CCNC(=O)C2CN(C(=O)c3ccncc3)CC23CCCCC3)CC1 (centres undefined) | 567
Cc1nn(CC(=O)NCc2ccncc2)c(=O)c2nc(-c3ccccc3)sc12 | 615
CCn1c(CCNC(=O)Cc2ccc(Cl)cc2)nc2cccnc21 | 639
CC(=O)C1=C(C)N(Cc2ccccc2)C(=O)C1(NC(=O)C1CCCCC1)C(F)(F)F (centres undefined) | 1020
Cc1cccc(-c2nnc(-c3cccc(S(=O)(=O)N(C)C)c3)o2)c1 | 982
CCCC1c2nccn2CCCN1C(=O)c1cc(C2CC2)[nH]n1 (centres undefined) | 596
Cc1ccccc1NC(=O)Cc1csc2nc(-c3cccc(Br)c3)cn12 | 948
O=C(C1CCCN(c2ccncc2)C1)N1CCCCCC1 (centres undefined) | 603
CCN1C(=O)c2ccccc2Oc2ccc(C(=O)NCc3ccccc3OC)cc21 | 917
COC(=O)c1ccc2nc(NC(=O)c3cc(Cl)ccc3Cl)sc2c1 | 965
O=C(Cn1nc(C2CC2)cc1C(=O)N1CCCC1)Nc1ccc(F)c(F)c1 | 789
CNC(=O)c1ccccc1C(=O)NCCc1nc(-c2cnccn2)no1 | 555

SMILES | RP-LC retention time [s]
COc1ccc(-n2ccc(=O)c(-c3nc(-c4ccccc4F)no3)n2)cc1OC | 770
O=C(c1ccsc1)N1CCC2(CC1)NC(=O)N(Cc1cccc(Cl)c1)C2=O | 816
COc1cccc(NC(=O)c2sc(C)nc2-c2ccc([N+](=O)[O-])cc2)c1 | 849
COc1ccc(CCN2C(=O)CC(Sc3ccccc3C(=O)O)C2=O)cc1OC (centres undefined) | 703
CCSc1nnc(NC(=O)CNC(=O)c2c[nH]c3ccccc23)s1 | 669
C=CCn1c(C)c(CC(=O)NC2CCCC2)c(=O)n2nc(-c3ccccc3)nc12 | 684
COC(=O)c1nc(NC(=O)Cn2nc3c(cc2=O)CCCC3)sc1-c1ccccc1 | 827
COC(=O)c1cc(OCC(=O)Nc2cccc(OC)c2)c2ccccc2n1 | 779
Cc1ccc(-c2nnc(C)c(NC3CC3)n2)cc1 | 644
CCn1cc(S(=O)(=O)Nc2ccc(F)cc2Cl)c2cccnc21 | 870
Cc1sc(-c2nc(C(C)C)cs2)cc1S(=O)(=O)NC1CCCC1 | 1240
CC1=NS(=O)(=O)N(Cc2ccccc2)C=C1C(=O)OCc1ccc(C(F)(F)F)cc1 | 1190
O=S(=O)(c1ccc2nncn2c1)N(Cc1cc(F)cc(F)c1)c1ccccc1 | 861
CCCCCCCCCOc1ccc2[nH]cc(CCN)c2c1 | 996
Cc1nc(-c2ccc(-c3noc(C(C)Oc4ccccc4)n3)cc2)cs1 (centres undefined) | 1210
Cc1nc(-c2noc(-c3cccnc3)n2)cn1CC(=O)NC(C)c1ccccc1 (centres undefined) | 684
COC(=O)C1=C(C)NC(SCC(=O)NC2CCCCC2)=C(C#N)C1c1ccccc1F (centres undefined) | 1020
COc1cc(NC(=O)NCc2cccs2)ccc1N1CCCCC1=O | 645
CNC(=O)Nc1cccn2nc(-c3ccccc3)nc12 | 702
CCc1nncn1C1CCN(C(=O)c2cc(F)ccc2F)CC1 | 604
O=C(CSc1ncc(CO)n1Cc1ccc(F)cc1)N1CCCc2ccccc21 | 702
Cn1nc(C(=O)Nc2onc3c2CSC3)ccc1=O | 585
Cc1nc(NC(=O)CNC(=O)c2c[nH]c3ccccc23)sc1C(=O)N(C)C | 614
CCN1C(=O)COc2ccc(-c3noc(-c4ccc(C#N)cc4)n3)cc21 | 1050
CCCCc1ccc(NC(=O)N2CCc3nc[nH]c3C2)cc1 | 675

Further lines, results first:

RP-LC retention time [s] | SMILES
981 | COc1ccc(-c2cn3nc(N4CCCC(C(=O)N5CCCC5)C4)sc3n2)cc1 (centres undefined)
638 | O=C(NCc1ccccn1)C1CCN(S(=O)(=O)c2cc(C(=O)N3CCCCCC3)cs2)CC1
680 | Cc1nc(N2CCCC(C(=O)NCCc3ccc(S(N)(=O)=O)cc3)C2)c2c(C)c(C)oc2n1 (centres undefined)
641 | CCOC(=O)CNC(=O)N1CCC(n2c(-c3ccc(F)cc3)nc3cccnc32)C1 (centres undefined)
817 | Cc1ccc(-c2noc(Cn3ncn4nc(-c5ccc(F)cc5)cc4c3=O)n2)cc1
631 | COCCNc1c(-c2ccc(F)cc2)nc2sc(C(=O)NCc3cccnc3)c(C)n12
841 | CCc1noc(NC(C)=O)c1-c1ccc(OC)c(S(=O)(=O)Nc2ccc(Cl)cc2C)c1
757 | O=C(Nc1ccccc1)C1CCN(S(=O)(=O)c2cc(C(=O)N3CCOCC3)cs2)CC1
613 | COc1ccc(-c2cc3c4nnc(CCC(=O)N5CCC(C(N)=O)CC5)n4ccn3n2)cc1
701 | CCOC(=O)C1CCN(C(=O)CCc2cc3cc(OC)ccc3[nH]c2=O)CC1
594 | CCCN1C(=O)c2cccnc2Sc2cc(C(=O)N3CCN(CC)CC3)ccc21
896 | Cc1cccc(S(=O)(=O)Nc2ccc3c(c2)CCC(=O)N3CC(C)C)c1
596 | Cc1ccnc(N2CCCC(C(=O)NCC3CCN(Cc4ccccc4C)CC3)C2)n1 (centres undefined)
954 | COc1ccc(-c2noc(CN3C(=O)COc4cc(C)ccc43)n2)cc1OC
901 | Cc1cc(NC(=O)C2CCCN(C(=O)C3Sc4ccccc4NC3=O)C2)ccc1Br (centres undefined)
821 | Cn1cccc1C(=O)N1CCC2(CC1)NC(=O)N(Cc1cccc(Cl)c1)C2=O
916 | COc1cc(-c2nnc(-c3cccc(S(=O)(=O)N4CCCC4)c3)o2)cc(OC)c1OC
696 | Cc1ccc(-c2cc(N3CCN(C(=O)c4ccccc4Br)CC3)ncn2)cc1
639 | Cc1ccc(C)c(CNC(=O)C2CCN(CCc3cn(C)c4ncccc34)CC2)c1
676 | CCNC(=O)Nc1ccc2c(c1)CN(S(=O)(=O)C(C)C)CCO2

RP-LC retention time [s] | SMILES
697 | Cc1ccc(S(=O)(=O)N2CC(c3nnc(-c4ccncc4)o3)C3(CCOCC3)C2)cc1 (centres undefined)
580 | Cc1oc(-c2[nH]ncc2C(=O)N(C)C)cc1S(=O)(=O)N1CCN(CC(C)C)CC1
548 | COc1coc(C(=O)N2CCN(S(C)(=O)=O)CC2)cc1=O
906 | O=C([C@@H]1C[C@H](F)CN1S(=O)(=O)c1ccc(F)cc1F)N1CCc2ccccc2C1
1040 | O=S(=O)(c1ccc(F)cc1)N1CCc2nc(-c3ccccc3)ncc2C1
776 | CCn1c(N2CCCC(C(=O)NCc3ccccc3F)C2)cc(=O)n(C)c1=O (centres undefined)
704 | CSc1ccc(CNC(=O)C2CCCN(c3cc(=O)n(C)c(=O)n3C)C2)cc1 (centres undefined)
643 | COc1cccc(-c2nc(-c3ccc4c(c3)ncn4CCN3CCCC3)no2)c1OC
618 | Cc1cccc(NC(=O)CSc2nnc(NC(=O)CN(C)S(C)(=O)=O)s2)c1C
604 | CN1C(=O)COc2cc(-c3noc(C(=O)NCCCN4CCCC4)n3)ccc21
826 | COc1cc(OC)cc(C(=O)N2CCC3(CC2)NC(=O)c2cc(Cl)ccc2N3C)c1
759 | Cc1nnc(N2CCCC(C(=O)NCc3ccccc3Cl)C2)c2nn(-c3ccccc3)c(C)c12 (centres undefined)
755 | Cc1cc(C)c(C)c(S(=O)(=O)N2CCN(c3nc4ccncc4n(C)c3=O)CC2)c1C
724 | Cc1nc(CCNC(=O)C2CCN(S(=O)(=O)c3ccc(F)c(F)c3)CC2)cs1
736 | C=CCNC(=O)NC1CCN(C2=NS(=O)(=O)C(c3ccc(C)cc3)=C2C)CC1
865 | CCc1ccc(CNC(=O)CCc2nc(N3CCCC3)c3c(C)noc3n2)cc1
1080 | O=c1c2ccccc2n(Cc2nc(-c3ccc(Cl)cc3)no2)c(=O)n1CC1CCCO1 (centres undefined)
656 | O=C(Cc1ccc(Cl)cc1)N1CCN(c2cnn3cnnc3c2)CC1
859 | COc1ccc(NC(=O)CSc2cc(N3CCN(c4ccc(OC)cc4)CC3)ncn2)cc1
